Legend:
[1] = system: human peripheral blood lymphocytes; assay: Cytotoxicity by LDH release, LPS-stimulated human peripheral blood lymphocytes; format: cell-based
Protocol: (§1) The pyrazoloisoquinoline derivatives according to the invention were tested for inhibitory activity against NIK in various in vitro assay systems. In this connection, human peripheral blood lymphocytes were preincubated for 1 h with different concentrations of the compounds and then stimulated for 24 h with LPS or IL1β. After that, a commercially obtainable ELISA test kit was used to measure the release of TNFα in the culture supernatant, and the IC50 for the given compound was determined. The cytotoxicity was measured by way of LDH release using a commercially obtainable test kit and the LD50 for the given compound was determined.

[2] = system: human peripheral blood lymphocytes; assay: Cytotoxicity by LDH release, IL1β-stimulated human peripheral blood lymphocytes; format: cell-based
Protocol: as §1

Row | Structure (SMILES) | melting point [°C] | Cytotoxicity LD50 [1] [µM] | Cytotoxicity LD50 [2] [µM]
1 | c1ccc(-c2nc3c(-c4ccccc4)n[nH]c3c3ccccc23)cc1 [Example 1, 3,5-Diphenyl-1H-pyrazolo[4,3-c]isoquinoline] | – | >100 | >100
2 | COc1cccc(-c2nc3c(C)n[nH]c3c3ccccc23)c1 [Example 2, 5-(3-Methoxyphenyl)-3-methyl-1H-pyrazolo[4,3-c]isoquinoline] | – | >100 | >100
3 | CCc1n[nH]c2c1nc(-c1ccccc1)c1ccccc12 [Example 46, 5-phenyl-3-ethyl-1H-pyrazolo[4,3-c]isoquinoline] | 250 to 251 | – | –
4 | Cc1n[nH]c2c1nc(-c1cccc(O)c1)c1ccccc12 [Example 3, 3-(3-Methyl-1H-pyrazolo[4,3-c]isoquinolin-5-yl)phenol] | – | >100 | >100
5 | CCc1n[nH]c2c1nc(-c1cccnc1)c1ccccc12 [Example 47, 3-Ethyl-5-(pyridin-3-yl)-1H-pyrazolo[4,3-c)isoquinoline] | 219 to 220 | – | –

Second part, led by results:

Row | melting point [°C] | Structure (SMILES) | Cytotoxicity LD50 [1] [µM] | Cytotoxicity LD50 [2] [µM]
6 | 299 to 300 | Cc1n[nH]c2c1nc(-c1ccccc1)c1cc(Br)ccc12 [Example 62, 7-Bromo-3-methyl-5-phenyl-1H-pyrazolo[4,3-c]isoquinoline] | – | –
7 | 264 to 265 | FC(F)(F)c1n[nH]c2c1nc(-c1ccccc1)c1ccccc12 [Example 75, 5-phenyl-3-trifluoromethyl-1H-pyrazolo[4,3-c]isoquinoline] | – | –

From patent US7132428B2, “Pyrazoloisoquinoline derivative as kinase inhibitors for the treatment of various disorders” (Aventis Pharmaceuticals Inc., priority 2003, dated 2006)
